From US20150320829A1, “Broad Spectrum Bacteriocin for Control of Unwanted Bacteria” (priority 2014, published 2015) come the findings set out here.

The test system of data set [1] is Lactobacillus GP15 (production host). In words: Activity against own production host. The class given is cell-based, Lactobacillus plantarum. An excerpt:
As noted above, GP-15cin may be applied alone or in combination with other bacteriocin and/or bacteriophage virulent for unwanted bacteria in the same system. Bacteriocin producing hosts are immune to the bacteriocins produced by themselves. GP-15cin is therefore not active against its own production host, […]. […] Therefore it is desirable to combine GP-15cin with a different bacteriocin in a cocktail that will kill the bacteria insensitive to GP15cin. Additionally GP-15cin may be combined with other antimicrobial agents to broaden the scope of effectiveness against the range of unwanted bacteria that are targeted. For example the combination of bacteriocin and bacteriophage (phage) ensures a broader inhibition spectrum and more efficient control of the bacteria contamination. Phage targeting these non-sensitive strains can be isolated, and be combined with the bacteriocin for a complete control of contaminating bacteria.

Data set [2] is described as follows: Stability of bacteriocin activity at different temperatures and pH values. The class given is physicochemical. The text has this: FIG. 1 is a schematic representation of the proteins responsible for producing the bacteriocin of the invention. Either using crude, partially or completely purified form, the chemical characteristics of the bacteriocins can be determined. The determined characteristics include their sensitivities to different enzymes, stability at different temperatures and pH values, etc. Sensitivity of the bacteriocin to proteolytic and lipolytic enzymes, such as trypsin, pepsin, pronase, lipase, etc, was tested. The proteinaceus nature of GP15cin was confirmed. […] The same bacteriocin has optimal activity in the pH range of 4-10.

The subject of data set [3] is indigenous contaminating bacteria in fermentation mash from commercial ethanol plants. Put plainly: Reduction of indigenous contaminating bacterial levels in ethanol fermentation mash. The class given is cell-based. The following applies: crude form. As to the method: FIG. 1 is a schematic representation of the proteins responsible for producing the bacteriocin of the invention. The inhibitory activity spectrum of GP15cin against different strains was determined. The active concentration range and the minimum inhibition concentration of the bacteriocin are determined using different indicator strains. The activity levels of the bacteriocin present in the raw bacterial culture supernatants and/or in partially purified mixtures were also determined. […] FIG. 2 to FIG. 11 show the effectiveness of GP15cin in reducing the total levels of indigenous bacteria presented in fermentation mash from different commercial ethanol plants. The exact identities of the indigenous bacteria population in different plants are unknown and are likely highly diverse.
GP15cin described herein were produced by a L. plantarum strain, which was isolated from the indigenous LAB populations present during commercial ethanol fermentation. GP15cin can act towards species and/or strains of similar indigenous LAB populations and thus can be used as an effective control for contaminating LAB. […] Either fermentor or mash cooler mash samples were collected from 6 different commercial ethanol plants on 13 different days from 2012 to 2014. Results of 15 independent tests are shown. […]

The subject of data set [4] is LAB isolates from commercial ethanol plants (multiple species of Lactobacillus, Lactococcus, Weissella, Leuconostoc, Pediococcus, Enterococcus, and …). Put plainly: Inhibitory activity spectrum: culture supernatant spotted onto indicator bacterial lawns. Format: cell-based, lactic acid bacteria. As to the method: (§1) FIG. 1 is a schematic representation of the proteins responsible for producing the bacteriocin of the invention. In the discovery of the unique broad spectrum bacteriocin of this invention, indigenous LAB were isolated and purified from the fermentation mash of the commercial ethanol fermentation plants. The identities of the isolates were determined to the species level based on their 16s rDNA sequences. The capability of the isolated LAB strains to produce antimicrobial compounds was identified. Culture supernatants of the strains to be tested were spotted onto individual indicator bacterial culture lawns, which were prepared using a variety of LAB strains of different genera. […] Any positive activity of bacterial growth inhibition from the tested culture supernatant was confirmed again in the same manner, and the inhibitory activity spectrum of the antimicrobial compound is determined. […]
(§2) FIG. 1 is a schematic representation of the proteins responsible for producing the bacteriocin of the invention. The inhibitory activity spectrum of GP15cin against different strains was determined. The active concentration range and the minimum inhibition concentration of the bacteriocin are determined using different indicator strains. The activity levels of the bacteriocin present in the raw bacterial culture supernatants and/or in partially purified mixtures were also determined. […]

The subject of data set [5] is Lactobacillus fermentum strain 0315-25. In words: Batch culture growth inhibition, bacteriocin and phage alone and combined. Format: cell-based. The following applies: 24 h. As to the method: Bacteriocin alone, bacteriophage alone, and bacteriocin combined with phage were tested against Lactobacillus in batch culture systems. To be specific, logarithmic growth phase cultures of Lactobacillus fermentum strain 0315-25 (OD600 being 0.1) were treated either with single agent at different doses, such as bacteriocin GP15cin alone at different doses (0.1%, 1%, and 10%, v/v), or a phage designated herein as LferInf alone at different MOIs (0.1, 1, and 10), or two agents combined together at different doses, such as 0.1% GP15cin plus LferInf at MOI of 0.1, 0.1% GP15cin plus phage LferInf at MOI of 1, 1% GP15cin plus LferInf at MOI of 0.1, and 1% GP15cin plus phage LferInf at MOI of 1. Culture without any treatment was served as control. LferInf is a bacteriophage isolated from wastewater and found to be effective against a broad host range of Lactobacillus and described in more detail below. The growth of bacteria was monitored for 24 h, and the treatment effects were compared.

Another data set has as its system contaminating LAB. In words: Lactic acid and acetic acid levels during laboratory-scale ethanol fermentation. Format: cell-based, lactic acid bacteria. An excerpt: GP15cin described herein were produced by a L. plantarum strain, which was isolated from the indigenous LAB populations present during commercial ethanol fermentation. GP15cin can act towards species and/or strains of similar indigenous LAB populations and thus can be used as an effective control for contaminating LAB. […] Either fermentor or mash cooler mash samples were collected from 6 different commercial ethanol plants on 13 different days from 2012 to 2014. Results of 15 independent tests are shown. […] It is likely that the effects on controlling contaminating bacteria and acids will be even more significant if a higher dose of […] is used. The presented results highlight the feasibility of GP15cin application for control of unwanted bacteria in ethanol and other biofuel industries.

The test system of data set [6] is non-LAB isolates, such as strains of Staphylococcus, Enterobacter, Bacillus, and Clostridium. Put plainly: Inhibitory activity spectrum: culture supernatant spotted onto indicator bacterial lawns. Format: cell-based. How it is done:
as §1, §2

Entries after “also recorded” stand apart in the source; their conditions may differ.

plantaricin W [GP15cin]: in data set [1], the “activity against its own production host” value is recorded as “not active”. In addition, the “pH range of optimal activity” value in data set [2] is given as 4-10 pH. The “loss of activity / heat resistance” value in data set [2] (after 2 hours at 120° C.) was “not a complete loss of activity”. For the same substance, the “reversibility of activity loss” value in data set [2] (extreme pH values) is “does not appear to be reversible”. The loss of activity result in data set [2] (pH 12) is on record as “complete loss of activity”. Moreover, the reduction in activity in data set [2] (pH values of 1, 2, 3, and 11) came out at 50%; in data set [2] (temperature of 12.0° C. (so in the source)), 87.5%; in data set [2] (temperatures of 65-100° C.) it was 50%. In data set [3], the “time in which the reduction effect was seen” value was at least 2 h. The “reduction of indigenous contaminating bacteria levels” value in data set [3] (mash from 6 commercial ethanol plants, 15 independent tests) is given as “consistent reduction effects seen in all tests; also recorded: reduced indigenous contaminating bacteria levels in all mash samples”. In addition, the “killing spectrum against a list of bacteria” value in data set [4] (LAB genera plus Staphylococcus, Enterobacter, Bacillus, Clostridium) is reported as “extremely broad killing spectrum”. Further, the “killing activity against LAB isolates” value in data set [4] (LAB isolates from commercial ethanol plants) is given as “broad range killing activity against the vast majority of the LAB isolates”. Besides, the “growth of L. fermentum compared to control” value was “all treatment, except GP15cin used at 0.1%, suppressed the growth” in data set [5] (GP15cin alone at 0.1% v/v); “suppressed the growth” in data set [5] (GP15cin alone at 1% and 10% v/v). Further, the “acetic acid level produced by contaminating LAB” value in the data set with contaminating LAB is on record as “significantly reduced”. Also, in the data set on contaminating LAB, the “lactic acid level produced by contaminating LAB” value is “significantly reduced”. Further, the “killing activity against non-LAB isolates” value in data set [6] is recorded as “showed killing activity”.
